Laboratory results from PMC4900628, “Critical Evaluation of P2X7 Receptor Antagonists in Selected Seizure Models” (PLoS ONE, 2016).

How the values were obtained:
[1] = target: T1, rat P2X7R (Rattus norvegicus, UniProt Q64663); assay: fluorometric Ca2+ assay (ATP-induced [Ca2+]i response) in HEKrP2X7 cells; assay type: cell-based; details: for IC50: HEKrP2X7 cells, fluo-4, 1 mM ATP, read-out: Potency IC50 ± SEM, Rat P2X7R
T1 construct: expressed in transfected cells; host or cells: HEK293 Flp-In T-REx (HEKrP2X7), tetracycline-induced
T1 sequence (Q64663 1-595): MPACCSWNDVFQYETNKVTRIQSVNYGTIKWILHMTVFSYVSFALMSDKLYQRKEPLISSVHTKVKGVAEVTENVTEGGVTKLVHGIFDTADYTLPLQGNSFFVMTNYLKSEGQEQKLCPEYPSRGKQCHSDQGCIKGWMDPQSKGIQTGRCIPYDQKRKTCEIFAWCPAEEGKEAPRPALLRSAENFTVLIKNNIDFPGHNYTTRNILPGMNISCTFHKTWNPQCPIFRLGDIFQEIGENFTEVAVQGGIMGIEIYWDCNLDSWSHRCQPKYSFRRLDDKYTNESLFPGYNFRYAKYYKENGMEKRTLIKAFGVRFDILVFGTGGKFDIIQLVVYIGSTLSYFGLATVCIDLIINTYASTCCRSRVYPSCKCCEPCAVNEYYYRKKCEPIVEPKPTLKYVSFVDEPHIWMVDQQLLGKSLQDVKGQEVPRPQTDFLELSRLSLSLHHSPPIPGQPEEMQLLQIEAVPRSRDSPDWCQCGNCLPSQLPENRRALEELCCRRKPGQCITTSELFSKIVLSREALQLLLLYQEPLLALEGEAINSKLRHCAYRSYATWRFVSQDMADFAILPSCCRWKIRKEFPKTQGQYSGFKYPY
Experimental: Cells were grown in a humidified incubator at 37°C in an atmosphere supplemented with 5% CO2. […] HEK293mP2X7 were cultured in DMEM under similar conditions as described above, but containing 100 μg/ml zeocin (Invitrogen). […] Expression of the transgene was induced by supplementing the medium with 1 μg/ml tetracycline (Sigma-Aldrich, Taufkirchen, Germany) 24 h prior to the experiments. All fluorometric Ca^2+ assays in cell suspensions were performed in 384-microwell plates (Corning, No. 3655, Lowell, MA, USA) with a fluorescence-imaging microplate reader (POLARstar Omega, BMG Labtech, Offenburg, Germany) (for details, see [61, 68]). […] Microwell plates were repetitively scanned every 16 s in the fast scanning mode of the device. […] Data were normalized to the baseline values before ATP application (F/F0). […] ATP-solution was freshly prepared in Mg^2+-free HBS solution and adjusted to pH 7.4. Aliquots of stock solutions were stored at -20°C and freshly diluted with the appropriate HBS solution. […] Results are expressed as mean ± SEM. […] In the PTZ-T, the number of animals in the group with clonic seizures and the latency time were analysed using Fisher's exact probability test and the Mann-Whitney rank sum test, respectively. For multiple comparisons of the latency time a one-way ANOVA with the Holm-Sidak post hoc test was used. The influence of AFC on the plasma and brain concentrations of the antiepileptic drugs was statistical compared using the same procedure. In the PTZ-kindling model, the mean seizure stage within a group was calculated in relation to the number of PTZ-injections. Statistical comparison between vehicle- and compound-treated groups in this model was performed with two-way repeated measures ANOVA, followed by the Holm-Sidak post hoc test. […] In fully kindled rats, the calculated mean seizure stage within a group after vehicle- and compound-treatment were compared using a paired t-test. P < 0.05 was the accepted minimum level of significance.

[2] = system: PTZ-induced seizures in fully PTZ-kindled rats; assay: PTZ-induced seizures in fully kindled rats; assay type: in vivo; details: for effect on mean seizure stage in fully kindled rats: TIIAS 30 mg/kg i.p., BBG 50 mg/kg i.p., AFC 25 mg/kg i.p., JNJ 30 mg/kg s.c., acute
Description: Results were expressed as mean seizure stages of a tested group in which the seizure behaviour after vehicle treatment (vehicle seizure stage) and after compound treatment (compound seizure stage), examined 3-4 days later, was matched. For comparison, the effectiveness of two antiepileptic drugs (carbamazepine and valproate) was also investigated. […] Chemicals, Toronto, Canada) was slowly added. The pH was adjusted with 1N NaOH (similar amount of NaOH as HCl), all with continuous stirring. […] The drug solutions or suspensions were prepared immediately before use; all doses refer to the salts. Animals in the control group received equivalent volumes of the vehicle (in mice always 10 ml/kg, in rats 1 ml/kg [JNJ], 3 ml/kg [AFC] or 4 ml/kg [BBG, TIIAS], depending on the solubility of the different compounds). Doses and peak time effects were selected on the basis of effective doses from corresponding in vivo studies in the literature: BBG (e.g.), tanshinone IIA (e.g.) and from manufacturer's experimental data: AFC, JNJ (see, [80]). Data were analysed using SigmaPlot (vers. 12.0, Systat Software, Erkrath, Germany) and SPSS (IBM SPSS Statistics 20, […], Germany), respectively. Results are expressed as mean ± SEM. […] In the MES-T, the current intensity inducing tonic hindlimb extensions in 50% of the mice (CC50 values with confidence limits for 95% probability) and the statistical significance was calculated using Probit analysis (SPSS). […] In the PTZ-T, the number of animals in the group with clonic seizures and the latency time were analysed using Fisher's exact probability test and the Mann-Whitney rank sum test, respectively. For multiple comparisons of the latency time a one-way ANOVA with the Holm-Sidak post hoc test was used. The influence of AFC on the plasma and brain concentrations of the antiepileptic drugs was statistical compared using the same procedure. In the PTZ-kindling model, the mean seizure stage within a group was calculated in relation to the number of PTZ-injections. Statistical comparison between vehicle- and compound-treated groups in this model was performed with two-way repeated measures ANOVA, followed by the Holm-Sidak post hoc test. The mean number of PTZ-injections needed to produce the first generalized seizure (≥ stage 3 convulsions) in the vehicle- versus compound-treated groups was statistically compared using a Mann-Whitney rank sum test. In fully kindled rats, the calculated mean seizure stage within a group after vehicle- and compound-treatment were compared using a paired t-test. P < 0.05 was the accepted minimum level of significance.

## Cc1c(S(=O)(=O)[O-])oc2c1C(=O)C(=O)c1c-2ccc2c1CCCC2(C)C.[Na+] [Tanshinone TIIAS, tanshinone IIS sulfonic sodium]
[1]
  IC50: ≥ 30 µM
[2]
  effect on mean seizure stage in fully kindled rats: tendency to reduce the mean seizure stage

## CCOc1ccc(Nc2ccc(/C(=C3C=C/C(=[N+](/CC)Cc4cccc(S(=O)(=O)[O-])c4)C=C/3C)c3ccc(N(CC)Cc4cccc(S(=O)(=O)O)c4)cc3C)cc2)cc1 [Brilliant Blue G]
[1]
  IC50: 0.05 ± 0.01 µM
[1]; read-out: inhibition of P2X7R / ATP-induced Ca2+ response corresponding to the achieved rat brain concentration
  inhibition at 0.02 µM: ~30%
[2]
  effect on mean seizure stage in fully kindled rats: tendency to reduce the mean seizure stage

## O=C(NCC1(N2CCN(c3ccccc3)CC2)CCOCC1)c1cccnc1Sc1ccccc1 [JNJ-47965567, N-[[4-(4-phenyl-piperazin-1-yl)tetrahydro-2H-pyran-4-yl]-methyl]-2-(phenyl-thio) nicotinamide]
[1]
  IC50: 0.003 ± 0.0001 µM
[2]
  effect on mean seizure stage in fully kindled rats: tendency to reduce the mean seizure stage
[2]; fully kindled rats, 15 mg/kg s.c., pre-drug (vehicle) value 4.4, significant
  mean seizure stage, post-drug: 2.9
